Laboratory results: the supplement of paper PMC5662764
± gives the standard deviation of the averaged measurements.

How the values were obtained:
Assay in all cases: normalised growth rate inhibition (GR value) relative to DMSO control (GR (1 = untreated growth, 0 = cytostasis, <0 = cytotoxic)); higher = less growth inhibition
Conditions in all cases: 72 h
SKBR3 = tested on: SKBR3
Procedure: (§1)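 Breast cancer cell lines (BT-20, Hs 578T, MCF 10A, MCF7, MDA-MB-231, SK-BR-3) were plated in 384-well plates and treated 24 h later with drugs at six concentrations (0.04-10 µM). Viable cells were counted by Hoechst/dead-cell-stain imaging at 0 and 72 h. Counts were normalised to DMSO controls on the same plate to give the relative cell count and the growth-rate inhibition (GR) value; technical plate triplicates were averaged for each biological replicate.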

MCF7 = tested on: MCF7
Procedure: as §1

MCF10A = tested on: MCF10A
Procedure: as §1

MDAMB231 = tested on: MDAMB231
Procedure: as §1

HS578T = tested on: HS578T
Procedure: as §1

BT20 = tested on: BT20
Procedure: as §1

Compound | normalised growth rate inhibition (SKBR3; 0.04 µM) | normalised growth rate inhibition (SKBR3; 0.12 µM) | normalised growth rate inhibition (SKBR3; 0.37 µM) | normalised growth rate inhibition (SKBR3; 1.11 µM) | normalised growth rate inhibition (SKBR3; 3.33 µM) | normalised growth rate inhibition (SKBR3; 10 µM) | normalised growth rate inhibition (MCF7; 0.04 µM) | normalised growth rate inhibition (MCF7; 0.12 µM) | normalised growth rate inhibition (MCF7; 0.37 µM) | normalised growth rate inhibition (MCF7; 1.11 µM) | normalised growth rate inhibition (MCF7; 3.33 µM) | normalised growth rate inhibition (MCF7; 10 µM) | normalised growth rate inhibition (MCF10A; 0.04 µM) | normalised growth rate inhibition (MCF10A; 0.12 µM) | normalised growth rate inhibition (MCF10A; 0.37 µM) | normalised growth rate inhibition (MCF10A; 1.11 µM) | normalised growth rate inhibition (MCF10A; 3.33 µM) | normalised growth rate inhibition (MCF10A; 10 µM) | normalised growth rate inhibition (MDAMB231; 0.04 µM) | normalised growth rate inhibition (MDAMB231; 0.12 µM) | normalised growth rate inhibition (MDAMB231; 0.37 µM) | normalised growth rate inhibition (MDAMB231; 1.11 µM) | normalised growth rate inhibition (MDAMB231; 3.33 µM) | normalised growth rate inhibition (MDAMB231; 10 µM) | normalised growth rate inhibition (HS578T; 0.04 µM) | normalised growth rate inhibition (HS578T; 0.12 µM) | normalised growth rate inhibition (HS578T; 0.37 µM) | normalised growth rate inhibition (HS578T; 1.11 µM) | normalised growth rate inhibition (HS578T; 3.33 µM) | normalised growth rate inhibition (HS578T; 10 µM) | normalised growth rate inhibition (BT20; 0.04 µM) | normalised growth rate inhibition (BT20; 0.12 µM) | normalised growth rate inhibition (BT20; 0.37 µM) | normalised growth rate inhibition (BT20; 1.11 µM) | normalised growth rate inhibition (BT20; 3.33 µM) | normalised growth rate inhibition (BT20; 10 µM)
CN1CCN(c2ccc3nc(-c4c(N)c5c(F)cccc5[nH]c4=O)[nH]c3c2)CC1 [dovitinib] | 0.711 ± 0.12 | 0.659 ± 0.066 | 0.497 ± 0.062 | 0.474 ± 0.081 | 0.275 ± 0.04 | 0.142 ± 0.045 | 0.898 ± 0.047 | 0.862 ± 0.079 | 0.678 ± 0.14 | 0.554 ± 0.19 | 0.379 ± 0.17 | 0.304 ± 0.1 | 0.962 ± 0.032 | 0.893 ± 0.046 | 0.599 ± 0.098 | 0.368 ± 0.18 | 0.146 ± 0.085 | 0.0253 ± 0.033 | 0.903 ± 0.11 | 0.817 ± 0.14 | 0.534 ± 0.1 | 0.451 ± 0.12 | 0.343 ± 0.068 | 0.23 ± 0.099 | 0.791 ± 0.047 | 0.562 ± 0.035 | 0.3 ± 0.083 | 0.271 ± 0.097 | 0.283 ± 0.079 | 0.254 ± 0.16 | 0.83 ± 0.047 | 0.685 ± 0.11 | 0.394 ± 0.13 | 0.304 ± 0.072 | 0.219 ± 0.034 | 0.156 ± 0.12
Cn1cc(C2=C(c3cn(C4CCN(Cc5ccccn5)CC4)c4ccccc34)C(=O)NC2=O)c2ccccc21 [enzastaurin] | 1.1 ± 0.097 | 1.07 ± 0.085 | 1.1 ± 0.033 | 1.06 ± 0.033 | 1.07 ± 0.056 | 0.958 ± 0.18 | 0.978 ± 0.052 | 0.999 ± 0.035 | 1.01 ± 0.035 | 0.946 ± 0.039 | 0.936 ± 0.084 | 0.693 ± 0.31 | 1.006 ± 0.0093 | 1 ± 0.014 | 1 ± 0.018 | 1.02 ± 0.03 | 1.01 ± 0.061 | 0.985 ± 0.11 | 1 ± 0.023 | 1.01 ± 0.035 | 1 ± 0.048 | 1 ± 0.071 | 1.01 ± 0.036 | 1.03 ± 0.079 | 1.02 ± 0.027 | 0.998 ± 0.018 | 1 ± 0.028 | 1.02 ± 0.027 | 1.01 ± 0.019 | 0.935 ± 0.035 | 1.01 ± 0.1 | 1.03 ± 0.057 | 1.07 ± 0.043 | 1.07 ± 0.079 | 1.13 ± 0.057 | 1.19 ± 0.062
C#Cc1cccc(Nc2ncnc3cc(OCCOC)c(OCCOC)cc23)c1 [erlotinib] | 0.756 ± 0.077 | 0.885 ± 0.06 | 0.946 ± 0.085 | 0.911 ± 0.072 | 0.868 ± 0.08 | 0.165 ± 0.12 | 0.858 ± 0.069 | 0.899 ± 0.074 | 1.02 ± 0.024 | 1.06 ± 0.047 | 1.04 ± 0.04 | 0.927 ± 0.074 | 0.973 ± 0.013 | 0.829 ± 0.14 | 0.432 ± 0.17 | 0.107 ± 0.053 | 0.132 ± 0.065 | 0.136 ± 0.036 | 0.9 ± 0.058 | 0.937 ± 0.032 | 0.953 ± 0.035 | 0.962 ± 0.036 | 0.969 ± 0.016 | 0.641 ± 0.069 | 0.973 ± 0.015 | 0.965 ± 0.023 | 0.957 ± 0.012 | 0.945 ± 0.019 | 0.918 ± 0.016 | 0.586 ± 0.073 | 0.861 ± 0.025 | 0.879 ± 0.049 | 0.902 ± 0.068 | 0.834 ± 0.032 | 0.856 ± 0.049 | 0.547 ± 0.057
COc1cc2c(Oc3ccc(NC(=O)C4(C(=O)Nc5ccc(F)cc5)CC4)cc3F)ccnc2cc1OCCCN1CCOCC1 [foretinib] | 1.07 ± 0.037 | 0.812 ± 0.26 | 0.0769 ± 0.069 | -0.0562 ± 0.079 | -0.034 ± 0.083 | -0.0967 ± 0.11 | 1.01 ± 0.025 | 0.495 ± 0.2 | 0.134 ± 0.019 | 0.0492 ± 0.039 | 0.00497 ± 0.016 | -0.225 ± 0.025 | 1.03 ± 0.031 | 0.992 ± 0.028 | 0.902 ± 0.034 | 0.429 ± 0.1 | 0.154 ± 0.043 | -0.0329 ± 0.028 | 0.91 ± 0.037 | 0.615 ± 0.012 | 0.168 ± 0.12 | 0.113 ± 0.12 | 0.0741 ± 0.17 | -0.211 ± 0.056 | 0.936 ± 0.045 | 0.845 ± 0.011 | 0.381 ± 0.15 | 0.256 ± 0.14 | 0.178 ± 0.14 | -0.223 ± 0.12 | 1.02 ± 0.046 | 0.799 ± 0.15 | 0.236 ± 0.22 | -0.00958 ± 0.12 | -0.0192 ± 0.12 | -0.124 ± 0.12
COc1cc2ncnc(Nc3ccc(F)c(Cl)c3)c2cc1OCCCN1CCOCC1 [gefitinib] | 0.909 ± 0.055 | 0.74 ± 0.063 | 0.567 ± 0.076 | 0.418 ± 0.099 | 0.342 ± 0.12 | 0.048 ± 0.14 | 1.09 ± 0.064 | 1.06 ± 0.069 | 1.05 ± 0.083 | 1.04 ± 0.092 | 1.03 ± 0.069 | 0.808 ± 0.04 | 0.887 ± 0.052 | 0.59 ± 0.11 | 0.265 ± 0.088 | 0.122 ± 0.01 | 0.121 ± 0.024 | 0.105 ± 0.022 | 1.07 ± 0.063 | 1.03 ± 0.068 | 1.019 ± 0.0099 | 1.02 ± 0.038 | 1.01 ± 0.069 | 0.897 ± 0.021 | 0.999 ± 0.0098 | 0.9844 ± 0.0036 | 0.984 ± 0.015 | 0.986 ± 0.014 | 0.987 ± 0.0035 | 0.849 ± 0.015 | 1.04 ± 0.075 | 0.968 ± 0.11 | 0.94 ± 0.051 | 0.909 ± 0.075 | 0.878 ± 0.05 | 0.762 ± 0.11
COC1=C2C[C@@H](C)C[C@H](OC)[C@H](O)[C@@H](C)/C=C(\C)[C@H](OC(N)=O)[C@@H](OC)/C=C\C=C(/C)C(=O)NC(=CC1=O)C2=O [geldanamycin] | 0.0174 ± 0.11 | -0.0672 ± 0.11 | -0.0584 ± 0.085 | -0.03 ± 0.059 | -0.187 ± 0.11 | -0.441 ± 0.14 | 0.503 ± 0.079 | 0.134 ± 0.026 | 0.0361 ± 0.021 | 0.0592 ± 0.03 | -0.0316 ± 0.038 | -0.3 ± 0.085 | 0.111 ± 0.066 | -0.0212 ± 0.045 | -0.0537 ± 0.053 | -0.0551 ± 0.04 | -0.0997 ± 0.049 | -0.171 ± 0.06 | 0.443 ± 0.2 | 0.0763 ± 0.097 | 0.0142 ± 0.17 | -0.0565 ± 0.17 | -0.148 ± 0.15 | -0.284 ± 0.13 | 0.762 ± 0.073 | 0.219 ± 0.12 | 0.143 ± 0.062 | 0.121 ± 0.071 | 0.0267 ± 0.14 | -0.11 ± 0.17 | 0.262 ± 0.1 | 0.00984 ± 0.086 | -0.0513 ± 0.1 | -0.0518 ± 0.12 | -0.114 ± 0.12 | -0.238 ± 0.1
Cc1ccc(NC(=O)c2ccc(CN3CCN(C)CC3)cc2)cc1Nc1nccc(-c2cccnc2)n1 [imatinib] | 1.05 ± 0.04 | 1.07 ± 0.045 | 1.04 ± 0.061 | 1.08 ± 0.046 | 1.11 ± 0.066 | 0.991 ± 0.043 | 1.06 ± 0.084 | 1.08 ± 0.088 | 1.08 ± 0.076 | 1.06 ± 0.057 | 1.04 ± 0.075 | 0.9 ± 0.039 | 1.002 ± 0.0079 | 1.001 ± 0.0023 | 0.9962 ± 0.003 | 1 ± 0.014 | 1.01 ± 0.018 | 0.998 ± 0.031 | 1.01 ± 0.055 | 0.999 ± 0.032 | 1.02 ± 0.04 | 1 ± 0.045 | 1.02 ± 0.028 | 0.915 ± 0.022 | 0.997 ± 0.018 | 0.996 ± 0.011 | 1.01 ± 0.034 | 1.03 ± 0.041 | 1.05 ± 0.059 | 1.05 ± 0.11 | 1 ± 0.033 | 1.02 ± 0.075 | 0.99 ± 0.03 | 1.02 ± 0.037 | 0.991 ± 0.042 | 0.981 ± 0.057
CS(=O)(=O)CCNCc1ccc(-c2ccc3ncnc(Nc4ccc(OCc5cccc(F)c5)c(Cl)c4)c3c2)o1 [lapatinib] | 0.0194 ± 0.093 | -0.00655 ± 0.072 | -0.0149 ± 0.1 | -0.0045 ± 0.12 | 0.00322 ± 0.13 | 0.133 ± 0.035 | 0.803 ± 0.12 | 0.872 ± 0.13 | 0.947 ± 0.074 | 0.936 ± 0.092 | 0.926 ± 0.051 | 0.321 ± 0.14 | 0.975 ± 0.029 | 0.957 ± 0.034 | 0.943 ± 0.047 | 0.895 ± 0.075 | 0.747 ± 0.16 | 0.288 ± 0.17 | 0.878 ± 0.033 | 0.9385 ± 0.0078 | 0.955 ± 0.01 | 0.948 ± 0.025 | 0.947 ± 0.011 | 0.62 ± 0.11 | 0.982 ± 0.025 | 0.9754 ± 0.0072 | 0.976 ± 0.019 | 0.985 ± 0.015 | 1.01 ± 0.027 | 0.636 ± 0.14 | 0.857 ± 0.091 | 0.957 ± 0.075 | 0.965 ± 0.053 | 0.991 ± 0.062 | 0.958 ± 0.11 | 0.749 ± 0.15
